Entries after “also recorded” stand apart in the source; their conditions may differ.
What was measured:
HNDFs (CCD966SK) = assay: MTT cytotoxicity of antcins against HNDFs; assay type: cell-based, human; settings: MTT, 72 h, up to 20 μM
Experimental: Please refer to FIG. 2A˜FIG. 2D, which are views showing HG-induced senescence affected by antcins in HNDFs. As shown in the figures, prior to an investigation, cytotoxicity of antcins against HNDFs is determined. In FIG. 2A, type of antcins are subjected to screen for potential anti-aging agents for skin aging. Names and chemical structures of the antcins are shown in the left and center column, respectively. The cytotoxic effects of antcins against HNDFs are investigated. Briefly, HNDFs are incubated with increasing concentrations (1, 5, 10 and 20 μM) of antcins including ANA, ANB, ANC, ANH, ANK and ANM for 72 h and the cell viability is determined by MTT assay. The 50% inhibitory concentrations (IC50) of each compound against HNDFs are shown in right column.
Cell viability is assessed by MTT colorimetric assay. Briefly, HNDFs (2×10^4cells/well) or HUVECs (5×10^4 cells/well) are seeded in a 24-well culture plate. After treatment with HG (15 and 30 mM) in the presence or absence of samples for 24-72 h, culture media is withdrawn and incubated with MTT (1 mg/mL) in fresh medium for 2 h. The MTT formazan crystals are dissolved in 400 μL of DMSO and the samples are measured at 570 nm […] using an ELISA microplate reader (Bio-Tek Instruments, Winooski, Vt.). The percentage of cell viability (%) is calculated as (A570 of treated cells/A570 of untreated cells)×100.

[1] = tested on: p16^INK4A, p21^CIP1 and SMP30; assay: Western blot of senescence-associated marker proteins in HNDFs; assay type: cell-based, human
Experimental: In addition, in FIG. 2C, HNDFs are incubated with ANA (10 μM), ANH (10 μM) and ANM (10 μM) in the presence of HG (30 mM) for 72 h. Senescence-associated marker proteins such as p16^INK4A, p21^CIP1 and SMP30 are determined by western blot analysis.
In order to assess the cellular and molecular basis of the ANM-mediated inhibition of senescence, the expression levels of senescence-associated marker proteins including, p16^INK4A and p21^CIP1 are examined. In FIG. 4D, to determine the effect of ANM on senescence-associated protein expression, HNDFs are incubated with ANM (10 μM) or NAC (100 μM) in the presence or absence of HG (30 mM) for 72 h. Immunoblotting analysis is used to determine the protein levels with corresponding specific antibodies.
Cells are lysed by either RIPA lysis buffer or nuclear and cytoplasmic extraction reagents (Thermo Fisher Scientific). Protein concentrations are determined by Bio-Rad protein assay reagent (Bio-Rad Laboratories, Hercules, Calif.). Equal amounts of protein samples (60 μg) are separated by 7-12% SDS-PAGE and the separated proteins are transferred onto polyvinylidene […] (PVDC) membrane overnight. The transferred protein membranes are blocked with 5% non-fat dried milk for 30 min, followed by incubation with specific primary antibodies overnight, and either horseradish peroxidase-conjugated goat anti-rabbit or anti-mouse antibodies for 2 h. The blots are detected using VL Chemi-Smart 3000 (Viogene Biotek, Sunnyvale, Calif.) with the enhanced chemiluminescence (ECL) western blotting reagent (Millipore, Billerica, Mass.).

wild-type N2 C. elegans = assay: C. elegans oxidative stress-resistance assay (Juglone); assay type: in vivo, Caenorhabditis elegans; settings: pretreatment 10 μM, 3 days; 250 μM Juglone 2.5, 3.5 and 4.5 h
Experimental: Please refer to FIG. 8A˜FIG. 8C, which are views showing the life span of wild-type C. elegans extended by ANM from oxidative stress. As shown in the figures, to further confirm the anti-oxidative property of ANM in vivo, C. elegans model is subjected. Wild-type N2 worms are pretreated with ANM for 3 days followed by exposure to oxidative stress. In FIG. 8A, to determine oxidative stress resistance, age synchronized wild-type L1 larvae are pretreated with ANM (10 and 20 μM) or DMSO (0.01%) for 3 days. Oxidative stress is induced by incubation of pre-treated worms with 250 μM Juglone for 2.5, 3.5 and 4.5 h and then scored for viability. Results are expressed as mean±S.E.M of three independent experiments. Statistical significance is ser at *P<0.05 as compared to control vs. sample treatment.
Age synchronized L1 larvae are incubated with liquid S-basal medium containing E. coli OP50 at a density of 1×10^9 cells. MI and 10 and 20 μM ANM or 0.01% DMSO (vehicle control) for 3 days. Subsequently, adult worms are subjected to oxidative stress assay. To induce oxidative stress, worms are incubated with Juglone (5-hydroxyl-1,4-naphthoquinone; Sigma), an ROS-generating agent. ANM treated and control worms are transferred to S-basal medium containing 250 μM Juglone, and incubated from 2.5, 3.5 and 4.5 h. After treatment, viable worms are scored. […] The test is performed triplicate.

HUVECs = assay: SA-β-gal senescence assay in HUVECs; assay type: cell-based, human; settings: ANM 10 μM + HG 30 mM, 48 h; HG alone 6.38-fold
Experimental: Please refer to FIG. 9A˜FIG. 9H, which are views showing HG-induced senescence prevented by ANM in human umbilical vein endothelial cells (HUVECs). As shown in the figures, to further delineate the protective effects of ANM on another cell system, experiments are designed to investigate the protective effect of ANM on HUVECs incubated in media containing either NG or HG alone or with ANM for 48 h. Cell viability is measured by MTT assay. […] Cell viability is determined by MTT assay. Percentage of viable cells are normalized with control cells (NG). […] In addition, in FIG. 9B, cellular senescence is determined by SA-β-gal activity assay. […] In addition, in FIG. 9C and FIG. 9D, total cell lysate is extracted and senescence-associated marker proteins including p16^INK4A, p21^CIP1 total and acetylated p53 and FoxO1 are measured by western blot analysis.
Senescence-associated β-galactosidase (SA-β-gal) activity is determined in formaldehyde-fixed histochemical staining kit according to the manufacturer's instructions (Cell Signaling Technology, Danvers, Calif.). Briefly, cells are grown in 6-well plates at a density of 5×10^4 cells/well, and incubated with HG or test samples for 48 h (HUVECs) or 72 h (HNDFs). […]

SMILES: C=C(CCC(C)C1CCC2C3=C(C(=O)C(O)C21C)C1(C)CCC(O)C(C)C1CC3)C(C)C(=O)O (stereo not drawn) [ANM, antcin M]
- cytotoxicity to HNDFs (in words) (HNDFs (CCD966SK)): did not show significant cytotoxicity
- SMP30 protein under HG (western blot) ([1]; 10 μM + HG 30 mM, 72 h): significantly upregulated
- HG-induced p16^INK4A and p21^CIP1 protein expression ([1]; 10 μM + HG 30 mM, 72 h, western blot): significantly downregulated; also recorded: significantly attenuates
- basal level of p21^CIP1 expression ([1]; ANM alone, no HG): significantly reduces
- survival rate of worms exposed to Juglone-induced oxidative stress (wild-type N2 C. elegans): significantly increases
- SA-β-gal staining in HUVECs (HUVECs): 1.36 fold

— patent US20180318199A1, “Pharmaceutical Composition Having Anti-Aging Properties against High-Glucose” (TAIWAN LEADER BIOTECH CORP., priority 2017, published 2018)
